Data taken from patent publication US9505752B2, “Piperidine amide derivatives as HIV attachment inhibitors” (priority 2012, dated 2016).
Where two headings read alike, the source gives them in different places.

Test system: HIV-1 LAI envelope single-round infectious reporter virus
Experiment: Single-round infectious luciferase reporter virus (HIV-1 LAI envelope) infection of MT2 cells
Type: cell-based
Conditions: Human immunodeficiency virus 1, MT2, 72 h
Text: • Virus production—Human embryonic Kidney cell line, 293T (HEK 293T), was propagated in Dulbecco's Modified Eagle Medium (Invitrogen, Carlsbad, Calif.) containing 10% fetal bovine serum (FBS, Sigma, St. Louis, Mo.). The human T-cell leukemia cell MT2 (AIDS Research and Reference Reagent Program, Cat. 237) was propagated in RPMI 1640 (Invitrogen, Carlsbad, Calif.) containing 10% fetal bovine serum (FBS, Hyclone, Logan, Utah) • Virus infection—Single-round infectious reporter virus was produced by co-transfecting HEK 293T cells with plasmide expressing the HIV-1 LAI envelope along with a plasmid containing an HIV-1 LAI proviral cDNA with the envelope gene replaced by a firefly luciferase reporter gene (Chen et al., Ref 41). Transfections were performed using lipofectAMINE PLUS reagent as described by the manufacturer (Invitrogen, Carlsbad, Calif.). Experimental Procedure • 1. MT2 cells were plated in black, 384 well plates at a cell density of 5×10^3 cells per well in 25 μl RPMI 1640 containing 10% FBS. • 2. Compound (diluted in dimethylsulfoxide and growth medium) was added to cells at 12.5 μl/well, so that the final assay concentration would be ≦50 nM. • 3. 12.5 μl of single-round infectious reporter virus in Dulbecco's Modified Eagle Medium was added to the plated cells and compound at an approximate multiplicity of infection (MOI) of 0.01, resulting in a final volume of 50 μl per well. • 4. Virus-infected cells were incubated at 37 degrees Celsius in a CO2 incubator and harvested 72 h after infection. • 5. Viral infection was monitored by measuring luciferase expression in the infected cells using a luciferase reporter gene assay kit (Steady-Glo, Promega, Madison, Wis.) as described by the manufacturer. Luciferase activity was then quantified by measuring luminescence using an EnVision Multilabel Plate Readers (PerkinElmer, Waltham, Mass.). • 6. The percent inhibition for each compound was calculated by quantifying the level of luciferase expression in cells infected in the presence of each compound as a percentage of that observed for cells infected in the absence of compound and subtracting such a determined value from 100. • 7. An EC50 provides a method for comparing the antiviral potency of the compounds of this invention. The effective concentration for fifty percent inhibition (EC50) was calculated with the Microsoft Excel Xlfit curve fitting software. For each compound, curves were generated from percent inhibition calculated at 10 different concentrations by using a four parameter logistic model (model 205). Table 1 is the key for the data in Table 2.

[1] = read-out: EC50 Group from Table 1

| SMILES | EC50 [nM] | EC50 [1] [nM] |
| --- | --- | --- |
| O=C(C(=O)N1CCC(C(=O)c2ccccc2)CC1)c1c[nH]c2ccccc12 [Compound 1001] | 3490 | > 500 |
| CC(C)=C(c1ccccc1)C1CCN(C(=O)C(=O)c2c[nH]c3ccccc23)CC1 [Compound 1002] |  | > 500 |
| C/C=C(\c1ccccc1)C1CCN(C(=O)C(=O)c2c[nH]c3ccccc23)CC1 [Compound 1003] |  | > 500 |
| C=C(c1ccccc1)C1CCN(C(=O)C(=O)c2c[nH]c3ccccc23)CC1 [Compound 1004] |  | > 500 |
| COc1cnc(-n2ccnn2)c2[nH]cc(C(=O)C(=O)N3CCC4(CC3)CC4(c3ccccc3)c3nnc(C)o3)c12 (centres unmarked) [Compound 1005] | 0.75 | < 500 |
| O=C(C(=O)N1CCC(Cc2ccccc2)CC1)c1c[nH]c2c(-n3ccnn3)ncc(F)c12 [Compound 1006] |  | < 500 |
| O=C(C(=O)N1CCC(C(O)(c2ccccc2)c2ccccc2)CC1)c1c[nH]c2c(-n3ccnn3)ncc(F)c12 [Compound 1007] |  | < 500 |
| N#CC(c1ccccc1)C1CCN(C(=O)C(=O)c2c[nH]c3c(-n4ccnn4)ncc(F)c23)CC1 (centres unmarked) [Compound 1008] | 0.2 | < 500 |
| COc1cnc(-n2cnc(C)n2)c2[nH]cc(C(=O)C(=O)N3CCC(C(C#N)c4ccccc4)CC3)c12 (centres unmarked) [Compound 1009] |  | < 500 |
| COc1ncc(OC)c2c(C(=O)C(=O)N3CCC4(CC3)CC4(C#N)c3ccccc3)c[nH]c12 (centres unmarked) [Compound 2001, 6-(2-(4,7-dimethoxy-1H-pyrrolo[2,3-c]pyridin-3-yl)-2-oxoacetyl)-1-phenyl-6-azaspiro[2.5]octane-1-carbonitrile] |  | < 500 |
| N#CC1(c2ccccc2)CC12CCN(C(=O)C(=O)c1c[nH]c3c(-n4ccnn4)ncc(F)c13)CC2 (centres unmarked) [Compound 2002, 6-(2-(4-fluoro-7-(1H-1,2,3-triazol-1-yl)-1H-pyrrolo[2,3-c]pyridin-3-yl)-2-oxoacetyl)-1-phenyl-6-azaspiro[2.5]octane-1-carbonitrile] |  | < 500 |
| COc1cnc(-n2cnc(C)n2)c2[nH]cc(C(=O)C(=O)N3CCC4(CC3)CC4(C#N)c3ccccc3)c12 (centres unmarked) [Compound 2003, 6-(2-(4-methoxy-7-(3-methyl-1H-1,2,4-triazol-1-yl)-1H-pyrrolo[2,3-c]pyridin-3-yl)-2-oxoacetyl)-1-phenyl-6-azaspiro[2.5]octane-1-carbonitrile] | 2.52 | < 500 |
| Cn1ccnc1C(O)(c1ccccc1)C1CCN(C(=O)C(=O)c2c[nH]c3c(-n4ccnn4)ncc(F)c23)CC1 (centres unmarked) [Compound 2004, 1-(4-fluoro-7-(1H-1,2,3-triazol-1-yl)-1H-pyrrolo[2,3-c]pyridin-3-yl)-2-(4-(hydroxy(1-methyl-1H-imidazol-2-yl)(phenyl)methyl)piperidin-1-yl)ethane-1,2-dione] |  | < 500 |
| COc1cnc(-n2cnc(C)n2)c2[nH]cc(C(=O)C(=O)N3CCC(C(O)(c4ccccc4)c4nccn4C)CC3)c12 (centres unmarked) [Compound 2005, 1-(4-(hydroxy(1-methyl-1H-imidazol-2-yl)(phenyl)methyl)piperidin-1-yl)-2-(4-methoxy-7-(3-methyl-1H-1,2,4-triazol-1-yl)-1H-pyrrolo[2,3-c]pyridin-3-yl)ethane-1,2-dione] |  | < 500 |
| Cn1ccnc1C(c1ccccc1)C1CCN(C(=O)C(=O)c2c[nH]c3c(-n4ccnn4)ncc(F)c23)CC1 (centres unmarked) [Compound 2006, 1-(4-fluoro-7-(1H-1,2,3-triazol-1-yl)-1H-pyrrolo[2,3-c]pyridin-3-yl)-2-(4-((1-methyl-1H-imidazol-2-yl)(phenyl)methyl)piperidin-1-yl)ethane-1,2-dione] |  | < 500 |
| COc1cnc(-n2cnc(C)n2)c2[nH]cc(C(=O)C(=O)N3CCC(C(c4ccccc4)c4nccn4C)CC3)c12 (centres unmarked) [Compound 2007, 1-(4-methoxy-7-(3-methyl-1H-1,2,4-triazol-1-yl)-1H-pyrrolo[2,3-c]pyridin-3-yl)-2-(4-((1-methyl-1H-imidazol-2-yl)(phenyl)methyl)piperidin-1-yl)ethane-1,2-dione] |  | < 500 |
